For the test, the system named is P388 leukemia ip, CD2F1 mice, survival T/C. Put plainly: NCI In Vivo Anticancer Drug Screen. Data for tumor model P388 Leukemia (intraperitoneal) in CD2F1 (CDF1) mice. To be noted: endpoint: median survival time, higher = longer survival. In outline:
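Mice carrying the transplanted tumor received test compound or vehicle. Survival was recorded in each group, and the value is the treated-group measurement divided by that of the vehicle-treated control group.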

Where [1] appears, read: dose: 50.0 mg/kg/injection, schedule: Q01DX009 (ip), vehicle: saline with Tween-80.
Setting [2] is: dose: 100.0 mg/kg/injection, schedule: Q01DX009 (ip), vehicle: saline with Tween-80.
[3] abbreviates: dose: 200.0 mg/kg/injection, schedule: Q01DX009 (ip), vehicle: saline with Tween-80.
Setting [4] is: dose: 50.0 mg/kg/injection, schedule: Q01DX005 (ip), vehicle: Klucel (hydroxypropylcellulose) (HPC).
The mark [5] stands for this setting: dose: 100.0 mg/kg/injection, schedule: Q01DX005 (ip), vehicle: Klucel (hydroxypropylcellulose) (HPC).
[6] abbreviates: dose: 200.0 mg/kg/injection, schedule: Q01DX005 (ip), vehicle: Klucel (hydroxypropylcellulose) (HPC).
The mark [7] stands for this setting: dose: 50.0 mg/kg/injection, schedule: Q01DX005 (ip), vehicle: saline with Tween-80.
[8] abbreviates: dose: 100.0 mg/kg/injection, schedule: Q01DX005 (ip), vehicle: saline with Tween-80.
Setting [9] is: dose: 200.0 mg/kg/injection, schedule: Q01DX005 (ip), vehicle: saline with Tween-80.
The mark [10] stands for this setting: dose: 60.0 mg/kg/injection, schedule: Q01DX005 (ip), vehicle: Klucel (hydroxypropylcellulose) (HPC).
The mark [11] stands for this setting: dose: 120.0 mg/kg/injection, schedule: Q01DX005 (ip), vehicle: Klucel (hydroxypropylcellulose) (HPC).
[12] abbreviates: dose: 240.0 mg/kg/injection, schedule: Q01DX005 (ip), vehicle: Klucel (hydroxypropylcellulose) (HPC).
The mark [13] stands for this setting: dose: 100.0 mg/kg/injection, schedule: Q01DX009 (ip), vehicle: Klucel (hydroxypropylcellulose) (HPC).
Where [14] appears, read: dose: 200.0 mg/kg/injection, schedule: Q01DX009 (ip), vehicle: Klucel (hydroxypropylcellulose) (HPC).

The values below come from PubChem BioAssay AID330 (DTP/NCI, 2004).

Where “and” joins values, the source holds several entries; their conditions need not be identical. Identical values can stand only once. Toxic doses and inconclusive results are not listed.

As for `CCCCCCCCCCCCCCCC(=O)N(CC#CCN(C(=O)CCCCCCCCCCCCCCC)C(C)CCCN(CC)CC)C(C)CCCN(CC)CC` (stereo not given), the T/C reads like this: (dose: 25.0 mg/kg/injection, schedule: Q01DX009 (ip), vehicle: other) 97 % of control; (dose: 50.0 mg/kg/injection, schedule: Q01DX009 (ip), vehicle: other) 101 % of control.
Regarding `CC1CC(=O)NC(=O)N1` (stereo not given), the T/C was 96 % of control under setting [1]; 102 % of control under setting [2]; 97 % of control (dose: 100.0 mg/kg/injection, schedule: Q04DX003 (ip), vehicle: saline with Tween-80); 99 % of control under setting [3]; 94 % of control (dose: 200.0 mg/kg/injection, schedule: Q04DX003 (ip), vehicle: saline with Tween-80); 103 % of control (dose: 400.0 mg/kg/injection, schedule: Q04DX003 (ip), vehicle: saline with Tween-80).
Consider `CCCCCCCCCCCCCCCCCCOC(=O)C(N)CCCCN` (stereo not given), for which the T/C runs as follows: (dose: 15.0 mg/kg/injection, schedule: Q01DX005 (ip), vehicle: saline) 96 % of control; (dose: 30.0 mg/kg/injection, schedule: Q01DX005 (ip), vehicle: saline) 110 % of control; (dose: 60.0 mg/kg/injection, schedule: Q01DX005 (ip), vehicle: saline) 109 % of control and 111 % of control.
Turning to `Cc1ccc(S(=O)(=O)NC2CC3(C)CCC2C3(C)C)cc1` (stereo not given), the T/C by setting is: under setting [4], 94 % of control; under setting [5], 97 % of control; under setting [6], 87 % of control.
For the molecule `CC1=CC(=O)C(O)C2(C)C(CCC3(C)OCCO3)C=C(O[Si](C)(C)C(C)(C)C)CC12` (stereo not given), the T/C by setting is: (dose: 60.0 mg/kg/injection, schedule: Q01DX005 (ip), vehicle: saline with Tween-80) 96 % of control; (dose: 120.0 mg/kg/injection, schedule: Q01DX005 (ip), vehicle: saline with Tween-80) 96 % of control; (dose: 240.0 mg/kg/injection, schedule: Q01DX005 (ip), vehicle: saline with Tween-80) 100 % of control.
Take `COc1c(OC)c(OC)c(-c2cc(=O)c3c(OC)c(OC)c(OC)c(OC)c3o2)c(OC)c1OC`: the T/C by setting is: under setting [4], 94 % of control; under setting [5], 88 % of control; under setting [6], 91 % of control.
In the case of `NC(=O)N=Nc1cccc(Cl)c1`, the T/C under setting [7] was 98 % of control, the T/C under setting [8] is 104 % of control and the T/C under setting [9] is 104 % of control.
For `CC(=O)Nc1ccc(SSc2ccc(NC(C)=O)c3cccnc23)c2ncccc12`, the T/C is 91 % of control (dose: 0.78 mg/kg/injection, schedule: Q01DX005 (ip), vehicle: saline with Tween-80); 91 % of control (dose: 1.56 mg/kg/injection, schedule: Q01DX005 (ip), vehicle: saline with Tween-80); 90 % of control (dose: 3.13 mg/kg/injection, schedule: Q01DX005 (ip), vehicle: saline with Tween-80); 86 % of control (dose: 12.5 mg/kg/injection, schedule: Q01DX005 (ip), vehicle: saline with Tween-80); 95 % of control (dose: 25.0 mg/kg/injection, schedule: Q01DX005 (ip), vehicle: saline with Tween-80); 115 % of control under setting [7].
Turning to `COc1ccc(C(C)c2cc3c(cc2OC)OCO3)c(C)c1` (stereo not given), the T/C reads like this: under setting [4], 116 % of control; under setting [5], 92 % of control; under setting [6], 119 % of control.
On to `c1cc2c(cc1CN1CCOCC1)Sc1cc(CN3CCOCC3)ccc1N2`, for which the T/C under setting [10] was 96 % of control, the T/C under setting [11] is 89 % of control and the T/C under setting [12] is 92 % of control.
As for `CC(=O)NC(CSC1(c2ccccc2)c2ccccc2-c2ccccc21)C(=O)O` (stereo not given), the T/C is, setting by setting: under setting [10], 93 % of control; under setting [11], 89 % of control.
With `Cc1nc2nc3n(c(=O)c2nc1C)CCCS3`, the T/C is 105 % of control (dose: 50.0 mg/kg/injection, schedule: Q01DX009 (ip), vehicle: saline); 103 % of control (dose: 100.0 mg/kg/injection, schedule: Q01DX009 (ip), vehicle: saline); 113 % of control (dose: 200.0 mg/kg/injection, schedule: Q01DX009 (ip), vehicle: saline).
As for `COCCCN1CC(=O)N2Cc3ccccc3CN2C(=O)C1`, the T/C is, setting by setting: under setting [7], 98 % of control; under setting [8], 98 % of control; under setting [9], 103 % of control.
Consider `CC(=O)Nc1ccc(S(=O)(=O)/N=C2\C=CC(=O)c3ccccc32)cc1`, for which the T/C is, setting by setting: (dose: 25.0 mg/kg/injection, schedule: Q01DX009 (ip), vehicle: saline with Tween-80) 105 % of control; under setting [1], 115 % of control; under setting [2], 110 % of control.
On to `Nc1ccc(-c2csc(COc3ccccc3)n2)cc1`, for which the T/C runs as follows: under setting [13], 106 % of control; under setting [14], 103 % of control.
In the case of `CC(=O)Nc1cc(S(=O)(=O)O)cc2c(N=Nc3ccc(C(=O)Nc4ccc(N=Nc5ccc(S(=O)(=O)O)cc5)cc4)cc3)c(S(=O)(=O)O)cc(O)c12`, the T/C runs as follows: under setting [7], 93 % of control; under setting [8], 90 % of control; under setting [9], 101 % of control.
As to `CCN(CC)CCCC(C)NCC(O)c1cc(-c2ccc(Cl)cc2)nc2ccccc12` (stereo not given), the T/C under setting [7] is 107 % of control and the T/C under setting [8] is 112 % of control.
In the case of `c1ccc(Nc2ccc(CN3CCOCC3)cc2)cc1`, the T/C reads like this: under setting [10], 105 % of control; under setting [11], 96 % of control; under setting [12], 88 % of control.
With `Cc1ccc(S(=O)(=O)OCOS(=O)(=O)c2ccc(C)cc2)cc1`, the T/C runs as follows: (dose: 25.0 mg/kg/injection, schedule: Q01DX009 (ip), vehicle: Klucel (hydroxypropylcellulose) (HPC)) 101 % of control; (dose: 50.0 mg/kg/injection, schedule: Q01DX009 (ip), vehicle: Klucel (hydroxypropylcellulose) (HPC)) 120 % of control and 121 % of control; under setting [13], 122 % of control; under setting [14], 123 % of control; (dose: 400.0 mg/kg/injection, schedule: Q01DX009 (ip), vehicle: Klucel (hydroxypropylcellulose) (HPC)) 160 % of control.
For `CC1C(=O)OC2C1CCC1(C)C3(C)C(=O)C=CC213` (stereo not given), the T/C is 97 % of control (dose: 15.0 mg/kg/injection, schedule: Q01DX005 (ip), vehicle: Klucel (hydroxypropylcellulose) (HPC)); 101 % of control (dose: 30.0 mg/kg/injection, schedule: Q01DX005 (ip), vehicle: Klucel (hydroxypropylcellulose) (HPC)); 104 % of control and 93 % of control under setting [10].
As for `O=C1OC2C(COC(=O)c3cc(O)c(O)c(O)c3)OC(OC(=O)c3cc(O)c(O)c(O)c3)C(OC(=O)c3cc(O)c(O)c4c3C3C1=CC(=O)[C@](O)(O4)C3(O)O)C2OC(=O)c1cc(O)c(O)c(O)c1` (stereo not given in full), the T/C by setting is: (dose: 6.25 mg/kg/injection, schedule: Q01DX009 (ip), vehicle: saline) 98 % of control; (dose: 12.5 mg/kg/injection, schedule: Q01DX009 (ip), vehicle: saline) 99 % of control; (dose: 25.0 mg/kg/injection, schedule: Q01DX009 (ip), vehicle: saline) 98 % of control.
For the molecule `Nc1ccc(S(=O)(=O)Nc2ccccc2-c2nc(N)nc(N)n2)cc1`, the T/C reads like this: under setting [1], 98 % of control; under setting [2], 97 % of control; under setting [3], 94 % of control; (dose: 400.0 mg/kg/injection, schedule: Q01DX009 (ip), vehicle: saline with Tween-80) 101 % of control.
For `CC1CN(/C=C2\Cc3c(Cl)cccc3C2=O)CCN1c1ccc(Cl)cc1` (stereo not given), the T/C runs as follows: (dose: 100.0 mg/kg/injection, schedule: Q04DX002 (ip), vehicle: saline) 100 % of control; (dose: 200.0 mg/kg/injection, schedule: Q04DX002 (ip), vehicle: saline) 102 % of control; (dose: 400.0 mg/kg/injection, schedule: Q04DX002 (ip), vehicle: saline) 100 % of control.
`CCCOC(=O)NC(C)C(=O)NC(CCC(=O)NC(CCCC(N)C(=O)O)C(=O)NC(C)C(=O)O)C(=O)O` (stereo not given): the T/C (dose: 1.56 mg/kg/injection, schedule: Q01DX005 (ip), vehicle: Klucel (hydroxypropylcellulose) (HPC)) was 100 % of control; the T/C (dose: 3.12 mg/kg/injection, schedule: Q01DX005 (ip), vehicle: Klucel (hydroxypropylcellulose) (HPC)) is 103 % of control; the T/C (dose: 6.25 mg/kg/injection, schedule: Q01DX005 (ip), vehicle: Klucel (hydroxypropylcellulose) (HPC)) was 100 % of control; the T/C (dose: 12.5 mg/kg/injection, schedule: Q01DX005 (ip), vehicle: Klucel (hydroxypropylcellulose) (HPC)) is 95 % of control and 96 % of control; the T/C (dose: 25.0 mg/kg/injection, schedule: Q01DX005 (ip), vehicle: Klucel (hydroxypropylcellulose) (HPC)) was 86 % of control; the T/C under setting [4] is 100 % of control.
